The nature of the series: Solubility of the compound in HEPES buffer. Format: physicochemical.

Drawing on ChEMBL document CHEMBL1821685 (Eur J Med Chem, 2011), this text covers solubility for two molecules.

Each structure is given as a SMILES string. Values after ≈ are worked out from the molar mass of the structure shown.

Regarding `CC(=O)c1cnc2c(=O)[nH]c(N)nc2n1`, the solubility – broadly, the concentration that dissolves in the medium under given conditions – came out at 500 µM (≈ 103 µg/mL).

The molecule `NNC(=O)c1cnc2c(=O)[nH]c(N)nc2n1` returned a solubility of 500 µM (≈ 111 µg/mL).
